The structures appear in SMILES notation. Counter-ions that a name gives are not always drawn.

One test in a line: Inhibition of guinea pig acetylcholinesterase.
Broadly, the IC50 is the point on the concentration scale where inhibition reaches its midpoint. Low readings indicate inhibition by little substance, high ones a need for much substance. As to `CN(C)Cc1ccc(CNCCN2CCN=C2C(C#N)C#N)o1` [2-(1-{2-[(5-Dimethylaminomethyl-furan-2-ylmethyl)-amino]-ethyl}-imidazolidin-2-ylidene)-malononitrile], 390 nM corresponded to half-maximal inhibition (IC50). For `N#CC(C#N)C1=NCCN1CCNCc1ccc(CN2CCCC(O)C2)o1` (stereo unspecified) [2-[1-(2-{[5-(3-Hydroxy-piperidin-1-ylmethyl)-furan-2-ylmethyl]-amino}-ethyl)-imidazolidin-2-ylidene]-malononitrile], half-maximal inhibition (IC50) was put at 370 nM.

On to `CC1CCCN(Cc2ccc(CNCCN3CCN=C3C(C#N)C#N)o2)C1` (stereo unspecified) [2-[1-(2-{[5-(3-Methyl-piperidin-1-ylmethyl)-furan-2-ylmethyl]-amino}-ethyl)-imidazolidin-2-ylidene]-malononitrile], for which the IC50 was determined as 370 nM.

Regarding `N#CC(C#N)C1=NCCN1CCNCc1ccc(CN2CCC(O)CC2)o1` [2-[1-(2-{[5-(4-Hydroxy-piperidin-1-ylmethyl)-furan-2-ylmethyl]-amino}-ethyl)-imidazolidin-2-ylidene]-malononitrile], it took 390 nM to reach half-maximal inhibition (IC50).

The next test is described as follows: Inhibition of guinea pig acetylcholinesterase.
As for `CCN(CC)Cc1ccc(CNCCN2CCN=C2C(C#N)C#N)o1`, the IC50 stood at 600 nM. With `N#CC(C#N)C1=NCCN1CCNCc1ccc(CN2CC=CCC2)o1`, it took 95 nM to reach half-maximal inhibition (IC50). As to `N#CC(C#N)C1=NCCN1CCNCc1ccc(CN2CCCCCC2)o1`, the IC50 came to 120 nM. Still for that read-out and setting: in the case of `COC1CCCN(Cc2ccc(CNCCN3CCN=C3C(C#N)C#N)o2)C1` (stereo unspecified) it was 3300 nM. Regarding `CN=C(NCCNCc1ccc(CN2CCCCC2)o1)C(C#N)C#N`, half-maximal inhibition (IC50) was put at 830 nM.

Compound `O=c1[nH]c2ccccc2n1CCNCc1ccc(CN2CCCCC2)o1` [1-{2-[(5-Piperidin-1-ylmethyl-furan-2-ylmethyl)-amino]-ethyl}-1,3-dihydro-benzoimidazol-2-one] came in with an IC50 of 1200 nM. `N#CC(C#N)C1=NCCN1CCNCc1ccc(CN2CCOCC2)o1` [2-(1-{2-[(5-Morpholin-4-ylmethyl-furan-2-ylmethyl)-amino]-ethyl}-imidazolidin-2-ylidene)-malononitrile] came in with an IC50 of 11000 nM. For the compound `N#CC(C#N)c1nc2ccccc2n1CCNCc1ccc(CN2CCCCC2)o1` [2-(1-{2-[(5-Piperidin-1-ylmethyl-furan-2-ylmethyl)-amino]-ethyl}-1,3-dihydro-benzoimidazol-2-ylidene)-malononitrile], the midpoint of inhibition, the IC50, lay at 73 nM. For `N#CC(C#N)C1=NCCN1CCNCc1ccc(CN2CCCCC2)o1` [2-(1-{2-[(5-Piperidin-1-ylmethyl-furan-2-ylmethyl)-amino]-ethyl}-imidazolidin-2-ylidene)-malononitrile], the 50% inhibitory concentration (IC50) came to 30 nM. On the same count and under the same terms, under `N#CC(C#N)C1=NCCN1CCNCc1ccc(CN2CCCC2)o1` [2-(1-{2-[(5-Pyrrolidin-1-ylmethyl-furan-2-ylmethyl)-amino]-ethyl}-imidazolidin-2-ylidene)-malononitrile] stands 80 nM; under `N#CC(C#N)C1=NCCN1CCNCc1ccc(CN2CCSCC2)o1` [2-(1-{2-[(5-Thiomorpholin-4-ylmethyl-furan-2-ylmethyl)-amino]-ethyl}-imidazolidin-2-ylidene)-malononitrile], 1500 nM; under `CN=C(NCCNCc1ccc(CN2CCCC2)o1)C(C#N)C#N` [2-(Methylamino-{2-[(5-pyrrolidin-1-ylmethyl-furan-2-ylmethyl)-amino]-ethylamino}-methylene)-malononitrile], 280 nM.

`CN=C(NCCNCc1ccc(CN(C)C)o1)C(C#N)C#N` [2-({2-[(5-Dimethylaminomethyl-furan-2-ylmethyl)-amino]-ethylamino}-methylamino-methylene)-malononitrile] had an IC50 of 630 nM. On the same count and under the same terms, under `CN=C(NCCNCc1ccc(COC)o1)C(C#N)C#N` [2-({2-[(5-Methoxymethyl-furan-2-ylmethyl)-amino]-ethylamino}-methylamino-methylene)-malononitrile] stands more than 20000 nM; under `CC1CCCCN1Cc1ccc(CNCCN2CCN=C2C(C#N)C#N)o1` (stereo unspecified) [2-[1-(2-{[5-(2-Methyl-piperidin-1-ylmethyl)-furan-2-ylmethyl]-amino}-ethyl)-imidazolidin-2-ylidene]-malononitrile], 540 nM.

`CC1CCN(Cc2ccc(CNCCN3CCN=C3C(C#N)C#N)o2)CC1` [2-[1-(2-{[5-(4-Methyl-piperidin-1-ylmethyl)-furan-2-ylmethyl]-amino}-ethyl)-imidazolidin-2-ylidene]-malononitrile]: the midpoint of inhibition, the IC50, lay at 290 nM. For the compound `CCN(C)Cc1ccc(CNCCN2CCN=C2C(C#N)C#N)o1` [2-{1-[2-({5-[(Ethyl-methyl-amino)-methyl]-furan-2-ylmethyl}-amino)-ethyl]-imidazolidin-2-ylidene}-malononitrile], the half-inhibitory concentration (IC50) amounted to 430 nM.

The compound `CN=C(NCCNCc1ccc(CN(C(C)C)C(C)C)o1)C(C#N)C#N` [2-{[2-({5-[(Diisopropylamino)-methyl]-furan-2-ylmethyl}-amino)-ethylamino]-methylamino-methylene}-malononitrile] showed an IC50 of 2100 nM. With `CNc1c(NCCNCc2ccc(CN3CCCCC3)o2)c(=O)c1=O` [3-Methylamino-4-{2-[(5-piperidin-1-ylmethyl-furan-2-ylmethyl)-amino]-ethylamino}-cyclobut-3-ene-1,2-dione], the IC50 worked out at 9300 nM. Compound `COc1cc(N)c(Cl)cc1C(=O)NCCNCc1ccc(CN(C)C)o1` [4-Amino-5-chloro-N-{2-[(5-dimethylaminomethyl-furan-2-ylmethyl)-amino]-ethyl}-2-methoxy-benzamide] showed an IC50 of 3100 nM. The same measure, in the same setting: in the case of `CCN(CC)CCNC(=O)c1cc(Cl)c(N)cc1OC` [4-amino-5-chloro-N-[2-(diethylamino)ethyl]-2-methoxy-benzamide;hydrochloride] it was more than 20000 nM; in that of `CN(C)Cc1ccc(CNCCN2CCN=C2C[N+](=O)[O-])o1` [(5-Dimethylaminomethyl-furan-2-ylmethyl)-[2-(2-nitromethylene-imidazolidin-1-yl)-ethyl]-amine], more than 2000 nM.

These data come from BindingDB's records for doi:10.1021/jm00057a007 (Kyowa Hakko Kogyo, 1993).
